Drawing on ChEMBL document CHEMBL4011640, “Identification and Structure-Activity Relationships of Novel Compounds that Potentiate the Activities of Antibiotics in Escherichia coli” (J Med Chem, 2017), this text covers MIC, Ratio and Activity for 1 compound.

Converted amounts (≈) assume the structure as drawn. The source made the active and inactive calls. The calls are words filed in the database; no cut-off is given here. Where only a bound is given, the exact number is not on record here.

The test system of assay [1] is Escherichia coli. The experiment in a line: Antimicrobial activity against Escherichia coli BW25113 after 24 hrs by two-fold broth microdilution assay. It is filed as functional. As to conditions: BW25113, 24 h. A general note: Broth dilution looks for growth in wells or tubes with falling amounts of substance.
Assay [2] has as its system Escherichia coli. Description: Ratio of MIC for wild type Escherichia coli harboring AcrAB-TolC deletion mutant to MIC for AcrAB-TolC knocked out Escherichia coli GD102 harboring […] pores in the outer membrane. It counts as functional.
In assay [3] the test system is Escherichia coli. Description: Binding affinity to Escherichia coli AG100 His-tagged AcrA at 25 uM by SPR assay. (In general: SPR reads the build-up and loss of mass on a sensor chip optically.)
For assay [4], the system named is Escherichia coli. Description: Binding affinity to Escherichia coli AG100 His-tagged AcrA at 50 uM by SPR assay.
Another assay has as its system Escherichia coli BW25113. The experiment in a line: Inhibition of AcrA efflux pump in Escherichia coli BW25113 assessed as compound concentration required for potentiation of novobiocin-induced antibacterial activity by 4 fold by checkerboard assay.
The test system of assay [5] is Escherichia coli. Description: Antimicrobial activity against Escherichia coli harboring AcrAB-TolC deletion mutant after 24 hrs by two-fold broth microdilution assay. It counts as functional.
The test system of assay [6] is Escherichia coli. The experiment in a line: Antimicrobial activity against Escherichia coli harboring pores in outer membrane after 24 hrs by two-fold broth microdilution assay. It counts as functional.
In assay [7] the test system is Escherichia coli. Description: Antimicrobial activity against AcrAB-TolC knocked out Escherichia coli GD102 harboring […] pores in the outer membrane after 24 hrs by two-fold broth microdilution assay. It is filed as functional. As to conditions: GD102, 24 h.
In assay [8] the test system is Escherichia coli. Description: Inhibition of AcrA in Escherichia coli assessed as increase in HT dye uptake at 25 uM measured up to 600 secs by fluorescence method.
Assay [9] can be described thus: Ratio of MIC for wild type Escherichia coli BW25113 to MIC for Escherichia coli harboring […] pores in the outer membrane. It counts as functional, cell membranes.

As usually defined, the MIC is the lowest concentration that inhibits growth of the organism. The low end stands for greater potency, the high end for weaker potency.

On to `O=C(Nc1ccc(C2=NCCN2)cc1)[C@H]1CC[C@H](C(=O)Nc2ccc(C3=NCCN3)cc2)CC1`, for which the MIC amounted to 50 µM (≈ 22.9 µg/mL) against Escherichia coli [1], 12.5 µM (≈ 5.73 µg/mL) against Escherichia coli [5], 25 µM (≈ 11.5 µg/mL) in the assay with Escherichia coli [6] and 6.25 µM (≈ 2.87 µg/mL) against Escherichia coli [7]. Further, the Ratio (with Escherichia coli [2]; in assay [9]) was 2 in each case. Moreover, the result in the assay on Escherichia coli [3] and in the assay on Escherichia coli [4] was inactive. Besides, the Activity with Escherichia coli BW25113 was over 400 µM. The outcome in the assay on Escherichia coli [8] was Active.
